“And” between values parts separate entries of the source, which are not always exact repeats. Identical values can stand only once. Like-named read-outs stand apart in the source and are kept apart here.
Legend:
cyclin K = test: Label-free quantitative mass spectrometry in MDA-MB-231 cells, cyclin K; type: cell-based, human; conditions: for CCNK peptide count (DMSO-normalised): normalised to DMSO = 1, replicate values
Experimental: MDA-MB-231 cells were treated with DMSO or a cyclin K degrader compound at 1 µM for 5 h. Cells were collected by centrifugation and washed with phosphate-buffered saline before snap freezing in liquid nitrogen. Cells were lysed by addition of lysis buffer (8 M urea, 50 mM NaCl, 50 mM 4-(2-hydroxyethyl)-1-piperazineethanesulfonic acid (EPPS) pH 8.5, and protease and phosphatase inhibitors) and homogenization by bead beating (BioSpec) for three repeats of 30 s at 2,400 rpm. Bradford assay was used to determine the final protein concentration in the clarified cell lysate. Then 50 µg of protein for each sample was reduced, alkylated and precipitated using methanol/chloroform as previously described, and the resulting washed precipitated protein was allowed to air dry. Precipitated protein was resuspended in 4 M urea, 50 mM HEPES pH 7.4, followed by dilution to 1 M urea with the addition of 200 mM EPPS, pH 8. Proteins were first digested with LysC (1:50; enzyme:protein) for 12 h at room temperature. The LysC digestion was diluted to 0.5 M urea with 200 mM EPPS pH 8 followed by digestion with trypsin (1:50; enzyme:protein) for 6 h at 37 °C. Sample digests were acidified with formic acid to a pH of 2–3 before desalting using C18 solid phase extraction plates (SOLA, Thermo Fisher Scientific). Desalted peptides were dried in a vacuum-centrifuged and reconstituted in 0.1% formic acid for liquid chromatography–mass spectrometry analysis.
Data were collected using a TimsTOF Pro2 (Bruker Daltonics) coupled to a nanoElute LC pump (Bruker Daltonics) via a CaptiveSpray nano-electrospray source. Peptides were separated on a reversed-phase C18 column (25 cm × 75 µm inner diameter, […], IonOpticks) containing an integrated captive spray emitter. Peptides were separated using a 50 min gradient of 2–30% buffer B (acetonitrile in 0.1% formic acid) with a flow rate of 250 nl min^−1 and column temperature maintained at 50 °C.
Data-dependent acquisition (DDA) was performed in Parallel Accumulation-Serial Fragmentation (PASEF) mode to determine effective ion mobility windows for downstream diaPASEF data collection. The ddaPASEF parameters included: 100% duty cycle using accumulation and ramp times of 50 ms each, one Trapped Ion Mobility Spectrometry(TIMS)-MS scan and ten PASEF ramps per acquisition cycle. The TIMS-MS survey scan was acquired between 100 m/z and 1,700 m/z and 1/K0 of 0.7–1.3 V s cm^−2. Precursors with one to five charges were selected, and those that reached an intensity threshold of 20,000 arbitrary units were actively excluded for 0.4 min. The quadrupole isolation width was set to 2 m/z for m/z < 700 and 3 m/z for m/z > 800, with the m/z between 700 m/z and 800 m/z being interpolated linearly. […] To perform diaPASEF, the precursor distribution in the DDA m/z-ion mobility plane was used to design an acquisition scheme for data-independent acquisition (DIA) data collection that included two windows in each 50 ms diaPASEF scan. Data were acquired using 16 of these 25 Da precursor double window scans (creating 32 windows) that covered the diagonal scan line for doubly and triply charged precursors, with singly charged precursors able to be excluded by their position in the m/z-ion mobility plane. These precursor isolation windows were defined between 400 m/z and 1,200 m/z and 1/K0 of 0.7–1.3 V s cm^−2.
DirectDIA mode includes first extracting the DIA data into a collection of MS2 spectra which are searched using Spectronaut’s Pulsar search engine. The search results are then used to generate a spectral library which is then employed for the targeted analysis of the DIA data. MS/MS spectra were searched against a Swissprot human database (January 2021). Database search criteria largely followed the default settings for directDIA including: tryptic with two missed cleavages, fixed carbomidomethylation of cysteine, and variable oxidation of methionine and acetylation of protein N-termini and precursor Q-value (FDR) cut-off of 0.01. […]

[1] = tested on: cyclin K–eGFP degradation reporter; test: Cyclin K reporter stability analysis (dual-color cyclin K–eGFP reporter); type: cell-based, human; conditions: for reporter assay signal (normalized): replicates; for cyclin K reporter degradation, result in words: HEK293T
Procedure, shortened: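 Readout was the eGFP-to-mCherry geometric-mean ratio by flow cytometry, normalized to three DMSO controls, after 5 h drug exposure. Cells used were HEK293T–Cas9 expressing the dual-colour cyclin K–eGFP degradation reporter.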

CDK9–cyclin T = molecular target: T1, CDK9–cyclin T (Homo sapiens, UniProt P50750); test: Lanthascreen kinase binding assay, CDK9; conditions: Supplementary Table 2; read-out: Lanthascreen IC50 [nM] CDK9
T1 construct: purchased Thermo Fisher
Experimental: (§1) Lanthascreen experiments were performed using commercially available reagents (Thermo Fisher) and according to the manufacturer’s instructions.

CDK2–cyclin A = molecular target: T2, CDK2–cyclin A (Homo sapiens, UniProt P24941); test: Lanthascreen kinase binding assay, CDK2
T2 construct: purchased Thermo Fisher
Experimental: as §1

[2] = individual replicates, sheet EDF7
[3] = label-free quantitative MS, replicate values
[4] = source data sheet correlations, read-out: DC50

T1 sequence (P50750 whole entry): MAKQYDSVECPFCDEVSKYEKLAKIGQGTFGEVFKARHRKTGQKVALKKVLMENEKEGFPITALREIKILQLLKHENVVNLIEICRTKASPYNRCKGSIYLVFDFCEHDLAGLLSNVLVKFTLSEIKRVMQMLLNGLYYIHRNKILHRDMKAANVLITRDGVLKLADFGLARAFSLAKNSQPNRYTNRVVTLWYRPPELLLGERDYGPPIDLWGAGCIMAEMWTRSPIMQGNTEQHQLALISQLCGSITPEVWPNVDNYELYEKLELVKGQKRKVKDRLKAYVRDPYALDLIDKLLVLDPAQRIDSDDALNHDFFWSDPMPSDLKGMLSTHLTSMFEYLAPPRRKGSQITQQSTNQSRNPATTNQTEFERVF
T1 sequence (O60563 whole entry partner): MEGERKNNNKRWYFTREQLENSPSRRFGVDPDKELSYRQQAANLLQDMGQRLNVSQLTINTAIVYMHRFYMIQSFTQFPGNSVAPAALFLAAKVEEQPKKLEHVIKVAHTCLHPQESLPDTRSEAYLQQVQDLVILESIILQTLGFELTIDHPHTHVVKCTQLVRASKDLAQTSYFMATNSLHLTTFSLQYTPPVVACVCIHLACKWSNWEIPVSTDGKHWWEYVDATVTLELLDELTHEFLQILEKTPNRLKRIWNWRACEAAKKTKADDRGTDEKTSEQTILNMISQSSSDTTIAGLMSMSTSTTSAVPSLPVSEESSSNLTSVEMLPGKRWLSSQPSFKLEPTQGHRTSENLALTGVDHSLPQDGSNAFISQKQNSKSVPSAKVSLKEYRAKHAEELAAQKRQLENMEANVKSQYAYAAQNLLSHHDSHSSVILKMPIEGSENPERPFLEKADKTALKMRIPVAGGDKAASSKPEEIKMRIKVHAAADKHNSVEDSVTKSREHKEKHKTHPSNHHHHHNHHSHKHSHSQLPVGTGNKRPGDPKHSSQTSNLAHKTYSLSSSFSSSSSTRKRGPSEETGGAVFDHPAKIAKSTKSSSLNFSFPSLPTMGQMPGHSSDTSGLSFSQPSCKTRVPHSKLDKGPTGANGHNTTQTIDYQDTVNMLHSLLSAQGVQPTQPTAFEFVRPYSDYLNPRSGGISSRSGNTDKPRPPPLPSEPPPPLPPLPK

CCC(CO)Nc1nc(NCc2ccc(-c3ccccn3)cc2)c2ncn(C(C)C)c2n1 (centres unmarked) [CR8, reference compound]
cyclin K abundance (label-free MS) (cyclin K; [2]): 122.337 and 71.6906
cyclin K abundance (label-free MS) (cyclin K; [3]): 122.337 and 71.6906
CCNK peptide count (DMSO-normalised) (cyclin K): 0.06684 and 0.03988
average CCNK peptide count (cyclin K; sheet EDF7): 97.0136
reporter assay signal (normalized) ([1]; 2 nM): 0.8972 and 0.9042
reporter assay signal (normalized) ([1]; 3 nM): 0.9215 and 0.8933
reporter assay signal (normalized) ([1]; 4.5 nM): 0.9042 and 0.8823
reporter assay signal (normalized) ([1]; 7.68 nM): 0.8744 and 0.8637
reporter assay signal (normalized) ([1]; 22.8 nM): 0.7879 and 0.7853
reporter assay signal (normalized) ([1]; 34.2 nM): 0.7383 and 0.7347
reporter assay signal (normalized) ([1]; 51.3 nM): 0.6912 and 0.706
reporter assay signal (normalized) ([1]; 77 nM): 0.6707 and 0.6773
reporter assay signal (normalized) ([1]; 260 nM): 0.5992 and 0.6647
reporter assay signal (normalized) ([1]; 390 nM): 0.6455 and 0.6368
reporter assay signal (normalized) ([1]; 585 nM): 0.6031 and 0.6411
reporter assay signal (normalized) ([1]; 877 nM): 0.5764 and 0.6073
reporter assay signal (normalized) ([1]; 1970 nM): 0.6031 and 0.6571
reporter assay signal (normalized) ([1]; 2960 nM): 0.6526 and 0.6453
reporter assay signal (normalized) ([1]; 4440 nM): 0.6125 and 0.6655
reporter assay signal (normalized) ([1]; 6670 nM): 0.6345 and 0.6267
reporter assay signal (normalized) ([1]; 10000 nM): 0.6031 and 0.6495
cyclin K reporter degradation, result in words [1]: potent degraders
DC50 ([1]; Supplementary Fig. 4, HEK293T cycKeGFP reporter, 5h, n=2, read-out: DC50 printed on reporter plot): 15 nM
DC50 [1, 4]: 24 nM
IC50 (CDK9–cyclin T): 44 nM

CC(C)c1nn(-c2c(Cl)cccc2Cl)c2nc(Cc3ccc(OCCO)cc3)[nH]c(=O)c12 [compound 21195]
Lanthascreen signal, sheet CDK2 (CDK2–cyclin A; Compound 0.038147 nM, raw replicates, experiment r48-r58): 0.01114 and 0.01116
Lanthascreen signal, sheet CDK2 (CDK2–cyclin A; Compound 0.038147 nM, raw replicates, experiment r72-r82): 0.02274 and 0.02249 and 0.02111
Lanthascreen signal, sheet CDK2 (CDK2–cyclin A; Compound 0.152588 nM, raw replicates, experiment r48-r58): 0.01418 and 0.01279
Lanthascreen signal, sheet CDK2 (CDK2–cyclin A; Compound 0.152588 nM, raw replicates, experiment r72-r82): 0.0215 and 0.0211 and 0.01988
Lanthascreen signal, sheet CDK2 (CDK2–cyclin A; Compound 0.610352 nM, raw replicates, experiment r48-r58): 0.01088 and 0.01046
Lanthascreen signal, sheet CDK2 (CDK2–cyclin A; Compound 0.610352 nM, raw replicates, experiment r72-r82): 0.01525 and 0.01498 and 0.01532
Lanthascreen signal, sheet CDK2 (CDK2–cyclin A; Compound 1.02544 nM, raw replicates, experiment r1-r11): 0.008805 and 0.007055
Lanthascreen signal, sheet CDK2 (CDK2–cyclin A; Compound 3.15521 nM, raw replicates, experiment r1-r11): 0.006794 and 0.006701
Lanthascreen signal, sheet CDK2 (CDK2–cyclin A; Compound 4.57247 nM, experiment r25-r34): 0.009774
Lanthascreen signal, sheet CDK2 (CDK2–cyclin A; Compound 9.46563 nM, raw replicates, experiment r1-r11): 0.005367 and 0.004658
Lanthascreen signal, sheet CDK2 (CDK2–cyclin A; Compound 9.76563 nM, raw replicates, experiment r48-r58): 0.004922 and 0.004545
Lanthascreen signal, sheet CDK2 (CDK2–cyclin A; Compound 9.76563 nM, raw replicates, experiment r72-r82): 0.008551 and 0.007922 and 0.008628
Lanthascreen signal, sheet CDK2 (CDK2–cyclin A; Compound 13.7174 nM, experiment r25-r34): 0.006843
Lanthascreen signal, sheet CDK2 (CDK2–cyclin A; Compound 31.5521 nM, raw replicates, experiment r1-r11): 0.003961 and 0.003619
Lanthascreen signal, sheet CDK2 (CDK2–cyclin A; Compound 39.0625 nM, raw replicates, experiment r48-r58): 0.004317 and 0.004069
Lanthascreen signal, sheet CDK2 (CDK2–cyclin A; Compound 39.0625 nM, raw replicates, experiment r72-r82): 0.008233 and 0.00742 and 0.007049
Lanthascreen signal, sheet CDK2 (CDK2–cyclin A; Compound 41.1523 nM, experiment r25-r34): 0.005858
Lanthascreen signal, sheet CDK2 (CDK2–cyclin A; Compound 99.3891 nM, raw replicates, experiment r1-r11): 0.003218 and 0.002962
Lanthascreen signal, sheet CDK2 (CDK2–cyclin A; Compound 123.457 nM, experiment r25-r34): 0.005407
Lanthascreen signal, sheet CDK2 (CDK2–cyclin A; Compound 156.25 nM, raw replicates, experiment r48-r58): 0.004055 and 0.004446
Lanthascreen signal, sheet CDK2 (CDK2–cyclin A; Compound 156.25 nM, raw replicates, experiment r72-r82): 0.007121 and 0.006977 and 0.007061
Lanthascreen signal, sheet CDK2 (CDK2–cyclin A; Compound 315.521 nM, raw replicates, experiment r1-r11): 0.003513 and 0.004201
Lanthascreen signal, sheet CDK2 (CDK2–cyclin A; Compound 370.37 nM, experiment r25-r34): 0.005303
Lanthascreen signal, sheet CDK2 (CDK2–cyclin A; Compound 625 nM, raw replicates, experiment r48-r58): 0.004058 and 0.004497
Lanthascreen signal, sheet CDK2 (CDK2–cyclin A; Compound 625 nM, raw replicates, experiment r72-r82): 0.007299 and 0.007212 and 0.007465
Lanthascreen signal, sheet CDK2 (CDK2–cyclin A; Compound 2500 nM, raw replicates, experiment r48-r58): 0.004147 and 0.004489
Lanthascreen signal, sheet CDK2 (CDK2–cyclin A; Compound 2500 nM, raw replicates, experiment r72-r82): 0.007107 and 0.006983 and 0.006617
Lanthascreen signal, sheet CDK2 (CDK2–cyclin A; Compound 3155.21 nM, raw replicates, experiment r1-r11): 0.004846 and 0.003852
Lanthascreen signal, sheet CDK2 (CDK2–cyclin A; Compound 3333.33 nM, experiment r25-r34): 0.004706
Lanthascreen signal, sheet CDK2 (CDK2–cyclin A; Compound 10000 nM, experiment r25-r34): 0.005121
Lanthascreen signal, sheet CDK2 (CDK2–cyclin A; Compound 10000 nM, raw replicates, experiment r48-r58): 0.003844 and 0.004325
Lanthascreen signal, sheet CDK2 (CDK2–cyclin A; Compound 10000 nM, raw replicates, experiment r72-r82): 0.007331 and 0.007604 and 0.008348
Lanthascreen signal, sheet CDK2 (CDK2–cyclin A; Compound 10002 nM, raw replicates, experiment r1-r11): 0.002963 and 0.004615
IC50 (CDK2–cyclin A; Supplementary Table 2, read-out: Lanthascreen IC50 [nM] CDK2): 3 nM
cyclin K depletion, result in words (cyclin K; MDA-MB-231 cells, 1 µM, 5 h): more effective at depleting cyclin K than CR8
CCNK peptide count (cyclin K; [2]): 55.265 and 55.9786
CCNK peptide count (cyclin K; [3]): 55.265 and 55.9786
CCNK peptide count (DMSO-normalised) (cyclin K): 0.03019 and 0.03114
average CCNK peptide count (cyclin K; sheet EDF7): 55.6218
reporter assay signal (normalized) ([1]; 2 nM): 0.9561 and 0.9287
reporter assay signal (normalized) ([1]; 3 nM): 0.9797 and 0.9734
reporter assay signal (normalized) ([1]; 4.5 nM): 0.9145 and 0.9397
reporter assay signal (normalized) ([1]; 7.68 nM): 0.9019 and 0.9312
reporter assay signal (normalized) ([1]; 22.8 nM): 0.769 and 0.8233
reporter assay signal (normalized) ([1]; 34.2 nM): 0.7674 and 0.787
reporter assay signal (normalized) ([1]; 51.3 nM): 0.6849 and 0.771
reporter assay signal (normalized) ([1]; 77 nM): 0.6566 and 0.7136
reporter assay signal (normalized) ([1]; 260 nM): 0.6047 and 0.6647
reporter assay signal (normalized) ([1]; 390 nM): 0.6094 and 0.6714
reporter assay signal (normalized) ([1]; 585 nM): 0.6094 and 0.6655
reporter assay signal (normalized) ([1]; 877 nM): 0.6086 and 0.6352
reporter assay signal (normalized) ([1]; 1970 nM): 0.5992 and 0.6495
reporter assay signal (normalized) ([1]; 2960 nM): 0.552 and 0.6731
reporter assay signal (normalized) ([1]; 4440 nM): 0.5937 and 0.62
reporter assay signal (normalized) ([1]; 6670 nM): 0.5457 and 0.6014
reporter assay signal (normalized) ([1]; 10000 nM): 0.5701 and 0.6031
cyclin K reporter degradation, result in words [1]: potent degraders
DC50 [1, 4]: 26 nM

Reference: publication PMC10746543, “Design principles for cyclin K molecular glue degraders” (Nature Chemical Biology, 2023)
